# Measurements as given in patent EP1611889A1, “ANTIBACTERIAL AGENT AND ANTICANCER AGENT” (MITSUBISHI CORPORATION, priority 2003, dated 2004).
# Test: Solubility in DMSO
# Type: physicochemical
substance,measurement,value
"C60-bis(N,N-dimethyl-2-hexylpyyrolidinium iodido) [derivative 4]",dissolved in DMSO at a concentration,≥ 5 mM
